From patent US20070142437A1, “CHEMICAL COMPOUNDS” (priority 2005, published 2007)

How the values were obtained:
Format in all cases: biochemical
CDK4 = biological target: T1, CDK4 (Homo sapiens, UniProt P11802); assay: CDK4 substrate phosphorylation assay (Rb protein, 33P-ATP); conditions: Inhibition of CDK4
T1 construct: made in house
Description: (§1) The compounds of the present invention have valuable pharmacologic properties. Different compounds from this class are particularly effective at inhibiting CDK2 and/or CDK4 enzymes at concentrations, which range from 0.0001 to 1 μM and additionally show specificity relative to other kinases. Substrate phosphorylation assays were carried out as follows:
Cyclin D1 and cyclin-dependent kinase 4 were expressed utilizing a baculovirus expression system. The catalytic activity of CDK4 protein was assayed by measuring the phosphorylation of Rb protein. A truncated Rb protein (residues 773-928 of the native retinoblastoma protein, fused to glutathione S-transferase to facilitate purification) was used as the phosphoryl acceptor. The assay conditions were 100 mM HEPES (N-[2-hydroxyethyl]piperzine-N′-[2-ethanesulfonic acid]), pH 7.5, 0.5 μM GST-Rb protein, 1 μCi/mL [^33P]-ATP (1 nM-20 μM), 5-20 mM MgCl2, 2.5 mM EDTA, 1 mM dithiotheitol, 0.2 mg/mL bovine serum albumin, 2% (v/v) dimethyl sulfoxide (DMSO), CDK4 enzyme (5-50 nM) in a final volume of 50 μL. Reactions were incubated for time periods of 10-60 min at 30° C. and terminated by the addition of 50 μL quench (1 mM ATP/100 mM EDTA, pH 7.0). Detection of protein phosphorylation was accomplished by scintillation counting following collection of protein in 96 well plates coated with Glutathione or trapping of protein onto phosphocellulose filters. Counts detected by these methodologies minus the appropriate background were assumed to be proportional to the reaction initial rates. IC50 values were determined by measuring enzyme activity in the presence of different inhibitor concentrations (0.1 nM to 50 μM). IC50s were determined by a least squares fit to the equation CPM=Vmax*(1−([I]/(K+[I])))+nsb, or pIC50s were determined by a fit to the equation CPM=nsb+(Vmax−nsb)/(1+(x/10^x−pIC50)), where nsb are the background counts.

CDK2 = biological target: T2, CDK2 (Homo sapiens, UniProt P24941); assay: CDK2 substrate phosphorylation assay (biotinylated peptide, 32P-ATP); conditions: Inhibition of CDK2
T2 construct: made in house
Description: as §1
Cyclin dependent protein kinase 2 assays utilized the peptide Biotin-aminohexyl-ARRPMSPKKKA-NH2 as phosphoryl group acceptor. CDK2 was expressed utilizing a baculovirus expression system and was partially purified to comprise 20-80% of total protein, with no detectable competing reactions present. Typically, assays were performed by incubating enzyme (0.2-10 nM), with and without inhibitor, peptide substrate (1-10 nM), [g-^32P]ATP (1-20 nM), and 10-20 mM Mg^2+ for periods of time generally within the range 10-120 minutes. Reactions were terminated with 0.2-2 volumes of either 20% acetic acid or 50-100 mM EDTA buffered to pH 7 (substrate consumption <20%). The buffer employed in enzyme assay was 100 mM HEPES pH 7.5 containing 0.1 mg/mL BSA and 5% DMSO. Inhibitors were diluted in 100% DMSO prior to addition into the assay. Detection of peptide phosphorylation was accomplished by scintillation counting following either collection of peptide onto phosphocellulose filters (for reactions stopped with acetic acid), collection of peptide in wells of 96 well plates coated with Streptavidin (Pierce) (reactions were stopped with EDTA), or addition of Avidin coated Scintillant impregnated beads (Scintillation Proximity Assays from Amersham, reactions were stopped with EDTA). Counts detected by any of these methodologies minus the appropriate background (assays with additional 40 mM EDTA or lacking peptide substrate) were assumed to be proportional to the reaction initial rates, and IC50s were determined by a least squares fit to the equation CPM=Vmax*(1−([I]/(K+[I])))+nsb, or −pIC50s were determined by a fit to the equation CPM=nsb+(Vmax−nsb)/(1+(x/10^x−pIC50)), where nsb are the background counts. Filters are washed four times with 75 mM phosphoric acid. Radioactivity was determined by liquid scintillation counting.

hVEGFR2 = hVEGFR2 (Homo sapiens, UniProt P35968); assay: VEGFR2 HTRF assay; conditions: Inhibition of VEGFR2
Chain of hVEGFR2 (P35968 20-1356): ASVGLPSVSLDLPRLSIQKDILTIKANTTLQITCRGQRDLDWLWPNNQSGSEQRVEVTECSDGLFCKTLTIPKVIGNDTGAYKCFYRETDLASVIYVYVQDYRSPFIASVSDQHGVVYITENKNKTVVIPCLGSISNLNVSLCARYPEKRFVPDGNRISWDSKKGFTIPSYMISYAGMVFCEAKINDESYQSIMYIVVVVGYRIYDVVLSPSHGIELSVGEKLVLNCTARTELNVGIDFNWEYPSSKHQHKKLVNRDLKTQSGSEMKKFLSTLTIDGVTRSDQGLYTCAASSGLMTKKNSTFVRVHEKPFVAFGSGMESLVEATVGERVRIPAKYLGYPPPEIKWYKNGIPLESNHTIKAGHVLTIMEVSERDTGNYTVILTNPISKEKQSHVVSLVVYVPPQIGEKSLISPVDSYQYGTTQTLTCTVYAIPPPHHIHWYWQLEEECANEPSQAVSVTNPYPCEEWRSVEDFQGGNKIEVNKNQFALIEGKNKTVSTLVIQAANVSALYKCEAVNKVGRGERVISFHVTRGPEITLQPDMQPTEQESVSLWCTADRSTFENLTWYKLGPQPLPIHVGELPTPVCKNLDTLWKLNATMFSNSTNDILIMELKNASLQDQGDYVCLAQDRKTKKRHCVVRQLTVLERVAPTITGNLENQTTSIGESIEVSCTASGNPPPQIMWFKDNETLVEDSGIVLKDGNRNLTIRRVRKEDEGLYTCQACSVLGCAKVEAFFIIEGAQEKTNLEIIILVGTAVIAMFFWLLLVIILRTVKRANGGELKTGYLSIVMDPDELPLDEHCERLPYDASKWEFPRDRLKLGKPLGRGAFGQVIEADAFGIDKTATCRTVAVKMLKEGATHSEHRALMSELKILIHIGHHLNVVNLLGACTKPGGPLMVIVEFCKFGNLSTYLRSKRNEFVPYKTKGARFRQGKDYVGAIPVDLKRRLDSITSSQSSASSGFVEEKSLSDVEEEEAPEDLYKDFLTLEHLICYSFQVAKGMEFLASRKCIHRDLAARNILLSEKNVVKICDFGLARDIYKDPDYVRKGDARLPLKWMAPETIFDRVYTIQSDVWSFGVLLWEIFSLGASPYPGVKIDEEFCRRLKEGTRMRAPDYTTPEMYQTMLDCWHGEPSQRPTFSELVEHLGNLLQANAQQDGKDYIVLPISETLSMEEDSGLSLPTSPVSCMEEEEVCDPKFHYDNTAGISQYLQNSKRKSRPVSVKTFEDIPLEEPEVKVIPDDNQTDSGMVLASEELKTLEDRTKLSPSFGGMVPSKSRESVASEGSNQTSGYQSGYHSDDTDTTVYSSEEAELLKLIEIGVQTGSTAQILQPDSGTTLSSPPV
Description: The compounds of the present invention elicit important and measurable pharmacological responses. Different compounds from this class are particularly effective at inhibiting VEGFR2 enzymes, as described by the VEGFR2 HTRF assay below, at concentrations, which range from 0.0001 to 1 μM.
The assays were performed in 96-well black plates. 10 nM hVEGFR2 was used to phosphorylate 0.36 μM peptide (Biotin-Ahx-EEEEYFELVAKKKK) in the presence of 75 μM ATP, 5 mM MgCl2, 0.3 mM DTT, 0.1 mg/ml BSA, and 0.1 M HEPES (pH 7.5). 10 μl 0.5 M EDTA was added to reactions as negative controls. The 50 μl kinase reaction with or without inhibitors in 5% DMSO was carried out at room temperature for 45 minutes, then stopped by 40 μl of 125 mM EDTA. 2.4 μg/ml Streptavidin-APC and 0.15 μg/ml Eu-α-pY, in the presence of 0.1 mg/ml BSA, 0.1 M HEPES (pH7.5), were added to a final volume of 140 μl. The plate was incubated for 10 min at room temperature (22° C.) and read on the Victor with the time resolved fluorescence mode by exciting at 340 nm and reading the emission at 665 nm.
• Peptide from Synpep (Dublin, Calif.) • ATP, MgCl2, DTT, BSA, HEPES, EDTA, DMSO from Sigma Streptavidin-APC from Molecular Probes (Eugene, Oreg.) • Eu-α-pY from EG&G Wallac (Gaithersburg, Md.)

T1 sequence (P11802 whole entry, species assumed): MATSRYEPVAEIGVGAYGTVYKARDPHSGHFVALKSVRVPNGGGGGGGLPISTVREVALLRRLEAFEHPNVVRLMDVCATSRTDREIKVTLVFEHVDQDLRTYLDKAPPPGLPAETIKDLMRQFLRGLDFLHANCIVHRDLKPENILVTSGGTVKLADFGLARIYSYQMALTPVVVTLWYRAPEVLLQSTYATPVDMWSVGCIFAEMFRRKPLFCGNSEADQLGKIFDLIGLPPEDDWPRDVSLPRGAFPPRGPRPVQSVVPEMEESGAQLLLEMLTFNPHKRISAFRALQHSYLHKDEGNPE
T1 sequence (P24385 whole entry partner, species assumed): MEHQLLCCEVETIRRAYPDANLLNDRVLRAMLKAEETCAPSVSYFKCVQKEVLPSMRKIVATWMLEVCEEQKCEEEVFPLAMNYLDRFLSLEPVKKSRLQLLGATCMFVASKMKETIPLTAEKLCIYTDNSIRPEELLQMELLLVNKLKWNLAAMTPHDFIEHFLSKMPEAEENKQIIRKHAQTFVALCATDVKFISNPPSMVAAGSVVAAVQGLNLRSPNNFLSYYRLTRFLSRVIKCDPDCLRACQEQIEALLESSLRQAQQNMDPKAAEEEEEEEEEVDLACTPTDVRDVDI

C=C(C)COc1cccc(-c2cnc(Nc3ccc(N4CCN(C)CC4)cc3)o2)c1 [Example 16, N-[4-(4-methylpiperazin-1-yl)phenyl]-5-{3-[(2-methylprop-2-enyl)oxy]phenyl}-1,3-oxazol-2-amine]
IC50 (CDK4): < 0.1 µM
IC50 (CDK2): < 0.1 µM
IC50 (hVEGFR2): < 1 µM

CN1CCN(c2ccc(Nc3ncc(-c4cccc(OC5CCCC5)c4)o3)cc2Cl)CC1 [Example 26, N-[3-Chloro-4-(4-methylpiperazin-1-yl)phenyl]-5-[3-(cyclopentyloxy)phenyl]-1,3-oxazol-2-amine]
IC50 (CDK4): < 0.1 µM
IC50 (CDK2): < 0.1 µM
IC50 (hVEGFR2): < 1 µM

COc1cccc(-c2cnc(Nc3ccc(N4CCN(C)CC4)cc3)o2)c1 [Example 4, 5-(3-Methoxyphenyl)-N-[4-(4-methylpiperazin-1-yl)phenyl]-1,3-oxazol-2-amine]
IC50 (CDK4): < 0.1 µM
IC50 (CDK2): < 1 µM
IC50 (hVEGFR2): < 1 µM

CN1CCN(c2ccc(Nc3ncc(-c4cccc(OC5CCCC5)c4)o3)cn2)CC1 [Example 34, N-{5-[3-(cyclopentyloxy)phenyl]-1,3-oxazol-2-yl}-6-(4-methylpiperazin-1-yl)pyridin-3-amine]
IC50 (CDK4): < 0.1 µM
IC50 (CDK2): < 0.1 µM
IC50 (hVEGFR2): < 1 µM

CCN1CCN(c2ccc(Nc3ncc(-c4cccc(OC)c4)o3)cc2)CC1 [Example 6, N-[4-(4-Ethylpiperazin-1-yl)phenyl]-5-(3-methoxyphenyl)-1,3-oxazol-2-amine]
IC50 (CDK4): < 0.1 µM
IC50 (CDK2): < 1 µM
IC50 (hVEGFR2): < 1 µM

CN1CCN(c2ccc(Nc3ncc(-c4cccc(OC5CCCC5)c4)o3)cc2F)CC1 [Example 28, 5-[3-(Cyclopentyloxy)phenyl]-N-[3-fluoro-4-(4-methylpiperazin-1-yl)phenyl]-1,3-oxazol-2-amine]
IC50 (CDK4): < 0.1 µM
IC50 (CDK2): < 0.1 µM
IC50 (hVEGFR2): < 0.1 µM

CCN(CC)c1ccc(Nc2ncc(-c3cccc(OC)c3)o2)cn1 [Example 35, N^2,N^2-diethyl-N^5-[5-(3-methoxyphenyl)-1,3-oxazol-2-yl]pyridine-2,5-diamine]
IC50 (CDK4): < 10 µM
IC50 (CDK2): < 10 µM
IC50 (hVEGFR2): < 10 µM

CC(C)Oc1cccc(-c2cnc(Nc3ccc(N4CCN(C)CC4)cc3)o2)c1 [Example 12, 5-(3-Isopropoxyphenyl)-N-[4-(4-methylpiperazin-1-yl)phenyl]-1,3-oxazol-Z -amine]
IC50 (CDK4): < 0.1 µM
IC50 (CDK2): < 0.1 µM
IC50 (hVEGFR2): < 1 µM

CC(C)COc1cccc(-c2cnc(Nc3ccc(N4CCN(C)CC4)cc3)o2)c1 [Example 14, 5-(3-Isobutoxyphenyl)-N-[4-(4-methylpiperazin-1-yl)phenyl]-1,3-oxazol-2-amine]
IC50 (CDK4): < 0.1 µM
IC50 (CDK2): < 1 µM
IC50 (hVEGFR2): < 1 µM

COc1cccc(-c2cnc(Nc3ccc(N4CC(C)NC(C)C4)cc3)o2)c1 (stereo not drawn) [Example 23, N-[4-(3,5-dimethylpiperazin-1-yl)phenyl]-5-(3-methoxyphenyl)-1,3-oxazol-2-amine]
IC50 (CDK4): < 1 µM
IC50 (CDK2): < 0.1 µM
IC50 (hVEGFR2): < 1 µM

COc1cccc(-c2cnc(Nc3ccccc3)o2)c1 [Example 1, 5-(3-methoxyphenyl)-N-phenyl-1,3-oxazol-2-amine]
IC50 (CDK4): < 1 µM
IC50 (CDK2): < 1 µM
IC50 (hVEGFR2): < 10 µM

COc1cccc(-c2cnc(Nc3ccc(N4CCN(C)CC4)nc3)o2)c1 [Example 31, N-[5-(3-methoxyphenyl)-1,3-oxazol-2-yl]-6-(4-methylpiperazin-1-yl)pyridin-3-amine]
IC50 (CDK4): < 1 µM
IC50 (CDK2): < 1 µM
IC50 (hVEGFR2): < 1 µM

c1ccc(-c2cnc(Nc3ccc(CN4CCOCC4)cc3)o2)cc1 [Example 8, N-[4-(Morpholin-4-ylmethyl)phenyl]-5-phenyl-1,3-oxazol-2-amine]
IC50 (CDK4): < 1 µM
IC50 (CDK2): < 10 µM
IC50 (hVEGFR2): < 1 µM

COc1cccc(-c2cnc(Nc3ccc(N4CCN(C)CC4)c(C(F)(F)F)c3)o2)c1 [Example 21, 5-(3-Methoxyphenyl)-N-[4-(4-methylpiperazin-1-yl)-3-(trifluoromethyl)phenyl]-1,3-oxazol-2-amine]
IC50 (CDK4): < 0.1 µM
IC50 (CDK2): < 1 µM
IC50 (hVEGFR2): < 1 µM

COc1cccc(-c2cnc(Nc3ccc(N4CCOCC4)cc3)o2)c1 [Example 9, 5-(3-Methoxyphenyl)-N-(4-morpholin-4-ylphenyl)-1,3-oxazol-2-amine]
IC50 (CDK4): < 1 µM
IC50 (CDK2): < 1 µM
IC50 (hVEGFR2): < 1 µM

CCN(CC)CCNC(=O)c1ccc(Nc2ncc(-c3cccc(OC)c3)o2)cc1 [Example 46, N-[2-(diethylamino)ethyl]-4-{[5-(3-methoxyphenyl)-1,3-oxazol-2-yl]amino}benzamide]
IC50 (CDK4): < 1 µM
IC50 (CDK2): < 1 µM
IC50 (hVEGFR2): < 1 µM

COc1cccc(-c2cnc(Nc3ccc(C(=O)N4CCN(C)CC4)cc3)o2)c1 [Example 47, 5-(3-methoxyphenyl)-N-{4-[(4-methylpiperazin-1-yl)carbonyl]phenyl}-1,3-oxazol-2-amine]
IC50 (CDK4): < 1 µM
IC50 (CDK2): < 1 µM
IC50 (hVEGFR2): < 1 µM

CCN(CC)c1ccc(Nc2ncc(-c3cccc(OC4CCCC4)c3)o2)cn1 [Example 36, N^5-{5-[3-(cyclopentyloxy)phenyl]-1,3-oxazol-2-yl}-N^2,N^2-diethylpyridine-2,5-diamine]
IC50 (CDK4): < 1 µM
IC50 (CDK2): < 1 µM
IC50 (hVEGFR2): < 10 µM

Cc1cc(Nc2ncc(-c3cccc(OC4CCCC4)c3)o2)ccc1N1CCN(C)CC1 [Example 27, 5-[3-(cyclopentyloxy)phenyl]-N-[3-methyl-4(4-methylpiperazin-1-yl)phenyl]-1,3-oxazol-2-amine]
IC50 (CDK4): < 0.1 µM
IC50 (CDK2): < 0.1 µM
IC50 (hVEGFR2): < 0.1 µM

CCCOc1cccc(-c2cnc(Nc3ccc(N4CCN(C)CC4)cc3)o2)c1 [Example 17, N-[4-(4-methylpiperazin-1-yl)phenyl]-5-(3-propoxyphenyl)-1,3-oxazol-2-amine]
IC50 (CDK4): < 0.1 µM
IC50 (CDK2): < 1 µM
IC50 (hVEGFR2): < 0.1 µM

CCOc1cccc(-c2cnc(Nc3ccc(N4CCN(C)CC4)cc3)o2)c1 [Example 5, 5-(3-Ethoxyphenyl)-N-[4-(4-methylpiperazin-1-yl)phenyl]-1,3-oxazol-2-amine]
IC50 (CDK4): < 0.1 µM
IC50 (CDK2): < 1 µM
IC50 (hVEGFR2): < 1 µM

CN1CCN(c2ccc(Nc3ncc(-c4ccccc4)o3)cc2)CC1 [Example 3, N-[4-(4-methylpiperazin-1-yl)phenyl]-5-phenyl-1,3-oxazol-2-amine]
IC50 (CDK4): < 1 µM
IC50 (CDK2): < 10 µM
IC50 (hVEGFR2): < 1 µM

COc1cccc(-c2cnc(Nc3ccc(N4CCN(C)CC4)c(C)c3)o2)c1 [Example 22, 5-(3-Methoxyphenyl)-N-[3-methyl-4-(4-methylpiperazin-1-yl)phenyl]-1,3-oxazol-2-amine]
IC50 (CDK4): < 0.1 µM
IC50 (CDK2): < 1 µM
IC50 (hVEGFR2): < 0.1 µM
